The values below come from US7981912B2, “Indole acetic acids exhibiting CRTH2 receptor antagonism and uses thereof” (Wyeth LLC, priority 2004, dated 2011).

The target in this experiment is T1, human CRTH2 (Homo sapiens, UniProt Q9Y5Y4).
T1 sequence (Q9Y5Y4 1-395): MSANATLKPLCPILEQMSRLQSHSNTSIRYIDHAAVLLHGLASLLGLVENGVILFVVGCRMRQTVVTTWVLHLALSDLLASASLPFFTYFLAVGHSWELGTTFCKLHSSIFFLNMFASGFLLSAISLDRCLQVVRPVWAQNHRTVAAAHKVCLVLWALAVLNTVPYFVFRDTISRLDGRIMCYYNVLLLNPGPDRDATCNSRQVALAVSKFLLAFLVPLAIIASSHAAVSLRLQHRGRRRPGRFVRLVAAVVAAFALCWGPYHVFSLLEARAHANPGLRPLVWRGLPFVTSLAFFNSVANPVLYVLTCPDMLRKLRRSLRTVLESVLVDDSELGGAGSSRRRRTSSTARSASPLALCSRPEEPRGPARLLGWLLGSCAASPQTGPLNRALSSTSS
Briefly: CRTH-2 binding assay (scintillation proximity assay, inhibition of 3H-PGD2 binding). The arrangement: expressed in transfected cells; host or cells: HEK 293EBNA-hCRTH2 (membrane preparation). To be noted: inhibition of 3H-PGD2 (3.6 nM) binding to HEK 293EBNA-hCRTH2 membranes; Ki calculated from IC50. Here is the method: A CRTH2 binding assay was developed to measure the ability of compounds to inhibit the binding of PGD2 to human CRTH2 using a scintillation proximity assay.
Membranes containing hCRTH2 receptors were prepared from HEK 293EBNA-hCRTH2 cells (a HEK 293EBNA cell line stably expressing human CRTH2). The cells were grown to confluency, harvested and washed with PBS. The cells were resuspended in 10 mM Hepes pH 7.4, 1 mM EDTA and protease inhibitors and incubated for 30 min on ice. The cells were homogenized and centrifuged for 10 min at 1000×g. The supernate was centrifuged for 30 min at 100,000×g and the membrane pellet was then resusupended in 10 mM Hepes pH 7.4 and 1 mM EDTA. The protein concentration of the membrane preparation was determined by Bradford assay (Bio-Rad).
The ability of compounds to inhibit the interaction of PGD2 to human CRTH2 was determined at seven compound concentrations. Compounds were serially diluted in DMSO then diluted into CRTH2 buffer without glycerol (10 mM Hepes pH 7.4, 1 mM EDTA, 10 mM MnCl2) to six times the final desired concentration. 20 μL of the diluted compounds were transferred into non-surface binding 96 well plates (Corning). Each concentration was done in triplicate. In addition to test compounds, each plate contained 12 control wells. Six of these wells contained 20 μL of CRTH2 buffer without glycerol. These wells were used to measure total binding. Six wells contained 20 μL of CRTH2 buffer without glycerol plus 1.5 mM indomethacin. These wells were used to measure non-specific binding. Next, HEK 293EBNA-hCRTH2 membranes were resuspended in CRTH2 buffer with glycerol (10 mM Hepes pH 7.4, 1 mM EDTA, 10 mM MnCl2, 25% glycerol) so that the final concentration was approximately 20 μg protein/100 μL. Polylysine coated yttrium silicate SPA beads (Amershamn) were added to the membrane mix to a concentration of 0.4 mg/100 μL and finally ^3H-PGD2 was added to the membrane/SPA bead mix to 3.6 nM. 100 μL of the membrane/SPA bead/^3H-PGD2 mix was added to each well of the non-surface binding plates containing the diluted compound plus controls. The plates were incubated for 2 hours at room temperature with shaking and then the plates were counted on a Microbeta scintillation counter (Perkin Elmer) for 1 min per well.
IC50 values were determined from the experimental results by nonlinear regression using Prism 4.0 software. The IC50 values were then used in conjunction with the […] for hCRTH2 and the ^3H-PGD2 concentration used in the experiment to calculate the Ki for each compound.

In the case of `O=C(O)Cn1cc(C2c3ccccc3S(=O)(=O)N2Cc2ccccc2)c2ccccc21` (stereo not drawn) [Example 28, [3-(2-Benzyl-1,1-dioxo-2,3-dihydro-1H-1λ^6-benzo[d]isothiazol-3-yl)-indol-1-yl]-acetic acid], the Ki was under 10000 nM.

As for `CC(C)CCN1C(c2cn(CC(=O)O)c3ccccc23)c2ccccc2S1(=O)=O` (stereo not drawn) [Example 29, {3-[2-(3-Methyl-butyl)-1,1-dioxo-2,3-dihydro-1H-1λ^6-benzo[d]isothiazol-3-yl]-indol-1-yl}-acetic acid], the Ki was under 10000 nM.

Consider `O=C(O)Cn1cc(C2c3ccccc3S(=O)(=O)N2Cc2ccc3ccccc3n2)c2ccccc21` (stereo not drawn) [Example 30, [3-(1,1-Dioxo-2-quinolin-2-ylmethyl-2,3-dihydro-1H-1λ^6-benzo[d]isothiazol-3-yl)-indol-1-yl]-acetic acid], for which the Ki was under 10000 nM.

`O=C(O)Cn1cc(C2c3ccccc3S(=O)(=O)N2Cc2cccc(Oc3ccc(F)cc3)c2)c2ccccc21` (stereo not drawn) [Example 31, (3-{2-[3-(4-Fluoro-phenoxy)-benzyl]-1,1-dioxo-2,3-dihydro-1H-1λ^6benzo[d]isothiazol-3-yl}-indol-1-yl)-acetic acid]: the Ki is under 1000 nM.

For the molecule `O=C(O)Cn1cc(C2c3ccccc3S(=O)(=O)N2Cc2ccccc2-c2ccccc2)c2ccccc21` (stereo not drawn) [Example 32, [3-(2-Biphenyl-2-ylmethyl-1,1-dioxo-2,3-dihydro-1H-1λ^6-benzo[d]isothiazol-3-yl)-indol-1-yl]-acetic acid], the Ki is under 1000 nM.

Consider `O=C(O)Cn1cc(C2c3ccccc3S(=O)(=O)N2Cc2csc(-c3cccs3)n2)c2ccccc21` (stereo not drawn) [Example 33, {3-[1,1-Dioxo-2-(2-thiophen-2-yl-thiazol-4-ylmethyl)-2,3-dihydro-1H-1λ^6-benzo[d]isothiazol-3-yl]-indol-1-yl}-acetic acid], for which the Ki was under 1000 nM.

As to `O=C(O)Cn1cc(C2c3ccccc3S(=O)(=O)N2Cc2csc(-c3ccc(Cl)cc3)n2)c2ccccc21` (stereo not drawn) [Example 34, (3-{2-[2-(4-Chloro-phenyl)-thiazol-4-ylmethyl]-1,1-dioxo-2,3-dihydro-1H-1λ^6-benzo[d]isothiazol-3-yl}-indol-1-yl)-acetic acid], the Ki is under 1000 nM.

On to `Cc1noc(C)c1CN1C(c2cn(CC(=O)O)c3ccccc23)c2ccccc2S1(=O)=O` (stereo not drawn) [Example 35, {3-[2-(3,5-Dimethyl-isoxazol-4-ylmethyl)-1,1-dioxo-2,3-dihydro-1H-1λ^6benzo[d]isothiazol-3-yl]-indol-1-yl}-acetic acid], for which the Ki was under 100 nM.

In the case of `Cc1onc(-c2ccccc2)c1CN1C(c2c(C)n(CC(=O)O)c3ccccc23)c2ccccc2S1(=O)=O` (stereo not drawn) [Example 36, {2-Methyl-3-[2-(5-methyl-3-phenyl-isoxazol-4-ylmethyl)-1,1-dioxo-2,3-dihydro-1H-1λ^6-benzo[d]isothiazol-3-yl]-indol-1-yl}-acetic acid], the Ki is under 100 nM.

As for `Cc1c(C2c3ccccc3S(=O)(=O)N2CC(=O)Nc2ccc(F)cc2)c2ccccc2n1CC(=O)O` (stereo not drawn) [Example 37, (3-{2-[(4-Fluoro-phenylcarbamoyl)-methyl]-1,1-dioxo-2,3-dihydro-1H-1λ^6-benzo[d]isothiazol-3-yl}-2-methyl-indol-1-yl)-acetic acid], the Ki was under 10000 nM.

For `Cc1c(C2c3ccccc3S(=O)(=O)N2CCO)c2ccccc2n1CC(=O)O` (stereo not drawn) [Example 38, {3-[2-(2-Hydroxy-ethyl)-1,1-dioxo-2,3-dihydro-1H-1λ^6-benzo[d]isothiazol-3-yl]-2-methyl-indol-1-yl}-acetic acid], the Ki was under 10000 nM.

As for `Cc1c(C2c3ccccc3S(=O)(=O)N2CCOc2ccc(Cl)cc2)c2ccccc2n1CC(=O)O` (stereo not drawn) [Example 39, (3-{2-[2-(4-Chloro-phenoxy)-ethyl]-1,1-dioxo-2,3-dihydro-1H-1λ^6-benzo[d]isothiazol-3-yl}-2-methyl-indol-1-yl)-acetic acid], the Ki is under 100 nM.

Consider `CCOC(=O)CN1C(c2c(C)n(CC(=O)O)c3ccccc23)c2ccccc2S1(=O)=O` (stereo not drawn) [Example 40, [3-(2-Ethoxycarbonylmethyl-1,1-dioxo-2,3-dihydro-1H-1λ^6benzo[d]isothiazol-3-yl)-2-methyl-indol-1-yl]-acetic acid], for which the Ki was under 1000 nM.

`Cc1c(C2c3ccccc3S(=O)(=O)N2CC2COc3ccccc3O2)c2ccccc2n1CC(=O)O` (stereo not drawn) [Example 41, {3-[2-(2,3-Dihydro-benzo[1,4]dioxin-2-ylmethyl)-1,1-dioxo-2,3-dihydro-1H-1λ^6-benzo[d]isothiazol-3-yl]-2-methyl-indol-1-yl}-acetic acid]: the Ki is under 1000 nM.

On to `Cc1nc(CN2C(c3c(C)n(CC(=O)O)c4ccccc34)c3ccccc3S2(=O)=O)cs1` (stereo not drawn) [Example 42, {2-Methyl-3-[2-(2-methyl-thiazol-4-ylmethyl)-1,1-dioxo-2,3-dihydro-1H-1λ^6benzo[d]isothiazol-3-yl]-indol-1-yl}-acetic acid], for which the Ki is under 1000 nM.

With `Cc1c(C2c3ccccc3S(=O)(=O)N2Cc2cccc(C(F)(F)F)c2)c2ccccc2n1CC(=O)O` (stereo not drawn) [Example 43, {3-[1,1-Dioxo-2-(3-trifluoromethyl-benzyl)-2,3-dihydro-1H-1λ^6-benzo[d]isothiazol-3-yl]-2-methyl-indol-1-yl}-acetic acid], the Ki was under 1000 nM.

For the molecule `Cc1c(C2c3ccccc3S(=O)(=O)N2CCC(C)C)c2ccccc2n1CC(=O)O` (stereo not drawn) [Example 44, {2-Methyl-3-[2-(3-methyl-butyl)-1,1-dioxo-2,3-dihydro-1H-1λ^6-benzo[d]isothiazol-3-yl]-indol-1-yl}-acetic acid], the Ki is under 1000 nM.

For `C=CCN1C(c2c(C)n(CC(=O)O)c3ccccc23)c2ccccc2S1(=O)=O` (stereo not drawn) [Example 45, [3-(2-Allyl-1,1-dioxo-2,3-dihydro-1H-1λ^6-benzo[d]isothiazol-3-yl)-2-methyl-indol-1-yl]-acetic acid], the Ki is under 1000 nM.

Take `Cc1c(C2c3ccccc3S(=O)(=O)N2CCCOc2ccccc2)c2ccccc2n1CC(=O)O` (stereo not drawn) [Example 46, {3-[1,1-Dioxo-2-(3-phenoxy-propyl)-2,3-dihydro-1H-1λ^6-benzo[d]isothiazol-3-yl]-2-methyl-indol-1-yl}-acetic acid]: the Ki was under 1000 nM.

Turning to `Cc1c(C2c3ccccc3S(=O)(=O)N2C(C)C)c2ccccc2n1CC(=O)O` (stereo not drawn) [Example 47, [3-(2-Isopropyl-1,1-dioxo-2,3-dihydro-1H-1λ^6-benzo[d]isothiazol-3-yl)-2-methyl-indol-1-yl]-acetic acid], the Ki was under 1000 nM.

`Cc1ccc2c(c1)c(C1c3ccccc3S(=O)(=O)N1Cc1nc3ccccc3s1)cn2CC(=O)O` (stereo not drawn) [Example 48, [3-(2-Benzothiazol-2-ylmethyl-1,1-dioxo-2,3-dihydro-1H-1λ^6-benzo[d]isothiazol-3-yl)-5-methyl-indol-1-yl]-acetic acid]: the inhibition constant Ki was under 1000 nM.

Take `Cc1ccc2c(c1)c(C1c3ccccc3S(=O)(=O)N1Cc1ccc(F)cc1)cn2CC(=O)O` (stereo not drawn) [Example 49, {3-[2-(4-Fluoro-benzyl)-1,1-dioxo-2,3-dihydro-1H—1λ^6-benzo[d]isothiazol-3-yl]-5-methyl-indol-1-yl}-acetic acid]: the Ki is under 1000 nM.

In the case of `Cc1ccc2c(c1)c(C1c3ccccc3S(=O)(=O)N1CCCOCc1ccccc1)cn2CC(=O)O` (stereo not drawn) [Example 50, {3-[2-(3-Benzyloxy-propyl)-1,1-dioxo-2,3-dihydro-1H-1λ^6-benzo[d]isothiazol-3-yl]-5-methyl-indol-1-yl}-acetic acid], the Ki is under 10000 nM.

As to `Cc1ccc2c(c1)c(C1c3ccccc3S(=O)(=O)N1Cc1cccc(C(F)(F)F)c1)cn2CC(=O)O` (stereo not drawn) [Example 51, {3-[1,1-Dioxo-2-(3-trifluoromethyl-benzyl)-2,3-dihydro-1H-1λ^6-benzo[d]isothiazol-3-yl]-5-methyl-indol-1-yl}-acetic acid], the Ki was under 10000 nM.

For orientation: Ki means the dissociation constant of the complex between target and ligand, obtained from inhibition or displacement.
